Experimental data: ChEMBL document CHEMBL3046083, “Synthesis, characterization and antimicrobial evaluation of novel derivatives of isoniazid” (2012)
Converted amounts (≈) assume the structure as drawn.

Tests used:
Assay type in all cases: functional
[1] = test system: Candida albicans; assay: Antimicrobial activity against Candida albicans ATCC 10231 at 100 ug/ml after 24 to 48 hr by agar diffusion method; details: read-out: DIZ
[2] = test system: Staphylococcus aureus; assay: Antimicrobial activity against Staphylococcus aureus ATCC 29213 after 24 hr by broth dilution method; details: ATCC 29213, 24 h
[3] = test system: Nakaseomyces glabratus; assay: Antimicrobial activity against Candida glabrata ATCC 10233 by broth dilution method
[4] = test system: Escherichia coli; assay: Antimicrobial activity against Escherichia coli ATCC 25922 after 24 hr by broth dilution method; details: ATCC 25922, 24 h
[5] = test system: Staphylococcus aureus; assay: Antimicrobial activity against Staphylococcus aureus ATCC 29213 at 100 ug/ml after 24 to 48 hr by agar diffusion method; details: read-out: DIZ
[6] = test system: Pseudomonas aeruginosa; assay: Antimicrobial activity against Pseudomonas aeruginosa ATCC […] after 24 hr by broth dilution method
[7] = test system: Nakaseomyces glabratus; assay: Antimicrobial activity against Candida glabrata ATCC 10233 at 100 ug/ml after 24 to 48 hr by agar diffusion method; details: read-out: DIZ
[8] = test system: Escherichia coli; assay: Antimicrobial activity against Escherichia coli ATCC 25922 at 100 ug/ml after 24 to 48 hr by agar diffusion method; details: read-out: DIZ
[9] = test system: Candida albicans; assay: Antimicrobial activity against Candida albicans ATCC 10231 by broth dilution method
[10] = test system: Bacillus subtilis; assay: Antimicrobial activity against Bacillus subtilis ATCC […] after 24 hr by broth dilution method
[11] = test system: Pseudomonas aeruginosa; assay: Antimicrobial activity against Pseudomonas aeruginosa ATCC […] at 100 ug/ml after 24 to 48 hr by agar diffusion method; details: read-out: DIZ
[12] = test system: Bacillus subtilis; assay: Antimicrobial activity against Bacillus subtilis ATCC […] at 100 ug/ml after 24 to 48 hr by agar diffusion method; details: read-out: DIZ
[13] = test system: Escherichia coli; assay: Antimicrobial activity against Escherichia coli ATCC 25922 at 50 ug/ml after 24 to 48 hr by agar diffusion method; details: read-out: DIZ
[14] = test system: Staphylococcus aureus; assay: Antimicrobial activity against Staphylococcus aureus ATCC 29213 at 50 ug/ml after 24 to 48 hr by agar diffusion method; details: read-out: DIZ
[15] = test system: Pseudomonas aeruginosa; assay: Antimicrobial activity against Pseudomonas aeruginosa ATCC […] at 50 ug/ml after 24 to 48 hr by agar diffusion method; details: read-out: DIZ
[16] = test system: Bacillus subtilis; assay: Antimicrobial activity against Bacillus subtilis ATCC […] at 50 ug/ml after 24 to 48 hr by agar diffusion method; details: read-out: DIZ

| Compound | zone of inhibition at 100 µg/mL [1] [mm] | MIC [2] [µg/mL] | MIC50 [2] [µg/mL] | MFC [3] [µg/mL] | MIC [3] [µg/mL] | MIC50 [3] [µg/mL] | MIC [4] [µg/mL] | MIC50 [4] [µg/mL] | zone of inhibition at 100 µg/mL [5] [mm] | MIC [6] [µg/mL] | MIC50 [6] [µg/mL] | zone of inhibition at 100 µg/mL [7] [mm] | zone of inhibition at 100 µg/mL [8] [mm] | MFC [9] [µg/mL] | MIC [9] [µg/mL] | MIC50 [9] [µg/mL] | MIC [10] [µg/mL] | MIC50 [10] [µg/mL] | zone of inhibition at 100 µg/mL [11] [mm] | zone of inhibition at 100 µg/mL [12] [mm] | also measured |
| --- | --- | --- | --- | --- | --- | --- | --- | --- | --- | --- | --- | --- | --- | --- | --- | --- | --- | --- | --- | --- | --- |
| CCOc1c(/C=N\NC(=O)c2ccncc2)cccc1CN1CCCC1 | 18 | 12.5 (≈ 35.5 µM) | 6.4 (≈ 18.2 µM) | 100 (≈ 284 µM) | 12.5 (≈ 35.5 µM) | 12.8 (≈ 36.3 µM) | 6.25 (≈ 17.7 µM) | 3.2 (≈ 9.08 µM) | 26 | 12.5 (≈ 35.5 µM) | 6.4 (≈ 18.2 µM) | 19 | 27 | 25 (≈ 70.9 µM) | 12.5 (≈ 35.5 µM) | 6.4 (≈ 18.2 µM) | 25 (≈ 70.9 µM) | 12.8 (≈ 36.3 µM) | 20 | 22 | – |
| CCOc1c(/C=N\NC(=O)c2ccncc2)cccc1CN(CC)CC | 15 | 25 (≈ 70.5 µM) | 12.8 (≈ 36.1 µM) | 100 (≈ 282 µM) | 25 (≈ 70.5 µM) | 25.6 (≈ 72.2 µM) | 25 (≈ 70.5 µM) | 12.8 (≈ 36.1 µM) | 21 | 25 (≈ 70.5 µM) | 12.8 (≈ 36.1 µM) | 14 | 20 | 25 (≈ 70.5 µM) | 25 (≈ 70.5 µM) | 12.8 (≈ 36.1 µM) | 25 (≈ 70.5 µM) | 12.8 (≈ 36.1 µM) | 16 | 19 | – |
| CCOc1ccccc1/C=N\NC(=O)c1ccncc1 | 13 | 25 (≈ 92.8 µM) | 12.8 (≈ 47.5 µM) | 100 (≈ 371 µM) | 25 (≈ 92.8 µM) | 25.6 (≈ 95.1 µM) | 50 (≈ 186 µM) | 25.6 (≈ 95.1 µM) | 19 | 25 (≈ 92.8 µM) | 12.8 (≈ 47.5 µM) | 11 | 18 | 50 (≈ 186 µM) | 50 (≈ 186 µM) | 25.6 (≈ 95.1 µM) | 50 (≈ 186 µM) | 25.6 (≈ 95.1 µM) | 14 | 15 | – |
| NYSTATIN | – | – | – | 25 | 12.5 | 6.4 | – | – | – | – | – | – | – | 12.5 | 6.25 | 3.2 | – | – | – | – | – |
| CCOc1c(/C=N\NC(=O)c2ccncc2)cccc1CN1CCCCC1 | 16 | 12.5 (≈ 34.1 µM) | 6.4 (≈ 17.5 µM) | 100 (≈ 273 µM) | 12.5 (≈ 34.1 µM) | 12.8 (≈ 34.9 µM) | 12.5 (≈ 34.1 µM) | 6.4 (≈ 17.5 µM) | 25 | 12.5 (≈ 34.1 µM) | 6.4 (≈ 17.5 µM) | 16 | 25 | 100 (≈ 273 µM) | 12.5 (≈ 34.1 µM) | 12.8 (≈ 34.9 µM) | 25 (≈ 68.2 µM) | 12.8 (≈ 34.9 µM) | 20 | 23 | – |
| CCOc1c(/C=N\NC(=O)c2ccncc2)cccc1CN(C)C | 13 | 25 (≈ 76.6 µM) | 12.8 (≈ 39.2 µM) | 100 (≈ 306 µM) | 25 (≈ 76.6 µM) | 25.6 (≈ 78.4 µM) | 25 (≈ 76.6 µM) | 12.8 (≈ 39.2 µM) | 21 | 25 (≈ 76.6 µM) | 12.8 (≈ 39.2 µM) | 14 | 20 | 100 (≈ 306 µM) | 25 (≈ 76.6 µM) | 12.8 (≈ 39.2 µM) | 50 (≈ 153 µM) | 12.8 (≈ 39.2 µM) | 15 | 17 | – |
| CCCCN(CCCC)Cc1cccc(/C=N\NC(=O)c2ccncc2)c1OCC | 15 | 12.5 (≈ 30.4 µM) | 6.4 (≈ 15.6 µM) | 100 (≈ 244 µM) | 12.5 (≈ 30.4 µM) | 12.8 (≈ 31.2 µM) | 12.5 (≈ 30.4 µM) | 6.4 (≈ 15.6 µM) | 23 | 12.5 (≈ 30.4 µM) | 6.4 (≈ 15.6 µM) | 15 | 24 | 100 (≈ 244 µM) | 25 (≈ 60.9 µM) | 12.8 (≈ 31.2 µM) | 25 (≈ 60.9 µM) | 12.8 (≈ 31.2 µM) | 19 | 21 | – |
| CC1(C)S[C@@H]2[C@H](NC(=O)[C@H](N)c3ccc(O)cc3)C(=O)N2[C@H]1C(=O)O [AMOXICILLIN] | – | 3.12 (≈ 8.54 µM) | 1.62 (≈ 4.43 µM) | – | – | – | 3.12 (≈ 8.54 µM) | 1.6 (≈ 4.38 µM) | – | 6.25 (≈ 17.1 µM) | 3.2 (≈ 8.76 µM) | – | – | – | – | – | 6.25 (≈ 17.1 µM) | 3.2 (≈ 8.76 µM) | – | – | zone of inhibition at 50 µg/mL [13]: 30 mm; zone of inhibition at 50 µg/mL [14]: 30 mm; zone of inhibition at 50 µg/mL [15]: 21 mm; zone of inhibition at 50 µg/mL [16]: 25 mm |
| CCOc1c(/C=N\NC(=O)c2ccncc2)cccc1CN1CCN(C)CC1 | 22 | 6.25 (≈ 16.4 µM) | 3.2 (≈ 8.39 µM) | 50 (≈ 131 µM) | 12.5 (≈ 32.8 µM) | 12.8 (≈ 33.6 µM) | 6.25 (≈ 16.4 µM) | 3.2 (≈ 8.39 µM) | 33 | 12.5 (≈ 32.8 µM) | 6.4 (≈ 16.8 µM) | 20 | 32 | 25 (≈ 65.5 µM) | 12.5 (≈ 32.8 µM) | 6.4 (≈ 16.8 µM) | 12.5 (≈ 32.8 µM) | 6.4 (≈ 16.8 µM) | 22 | 26 | – |
| CCOc1c(/C=N\NC(=O)c2ccncc2)cccc1CN1CCOCC1 | 21 | 6.25 (≈ 17 µM) | 3.2 (≈ 8.69 µM) | 50 (≈ 136 µM) | 12.5 (≈ 33.9 µM) | 12.8 (≈ 34.7 µM) | 6.25 (≈ 17 µM) | 3.2 (≈ 8.69 µM) | 32 | 12.5 (≈ 33.9 µM) | 6.4 (≈ 17.4 µM) | 21 | 31 | 25 (≈ 67.9 µM) | 12.5 (≈ 33.9 µM) | 6.4 (≈ 17.4 µM) | 12.5 (≈ 33.9 µM) | 6.4 (≈ 17.4 µM) | 22 | 27 | – |
| CCCN(CCC)Cc1cccc(/C=N\NC(=O)c2ccncc2)c1OCC | 15 | 25 (≈ 65.4 µM) | 6.4 (≈ 16.7 µM) | 100 (≈ 261 µM) | 12.5 (≈ 32.7 µM) | 12.8 (≈ 33.5 µM) | 12.5 (≈ 32.7 µM) | 6.4 (≈ 16.7 µM) | 22 | 12.5 (≈ 32.7 µM) | 6.4 (≈ 16.7 µM) | 15 | 22 | 50 (≈ 131 µM) | 25 (≈ 65.4 µM) | 12.8 (≈ 33.5 µM) | 25 (≈ 65.4 µM) | 12.8 (≈ 33.5 µM) | 18 | 21 | – |
| CCOc1c(/C=N\NC(=O)c2ccncc2)cccc1CN(c1ccccc1)c1ccccc1 | 21 | 6.25 (≈ 13.9 µM) | 3.2 (≈ 7.1 µM) | 50 (≈ 111 µM) | 12.5 (≈ 27.7 µM) | 12.8 (≈ 28.4 µM) | 6.25 (≈ 13.9 µM) | 3.2 (≈ 7.1 µM) | 31 | 12.5 (≈ 27.7 µM) | 6.4 (≈ 14.2 µM) | 22 | 32 | 25 (≈ 55.5 µM) | 12.5 (≈ 27.7 µM) | 6.4 (≈ 14.2 µM) | 12.5 (≈ 27.7 µM) | 6.4 (≈ 14.2 µM) | 22 | 26 | – |
| CCOc1c(/C=N\NC(=O)c2ccncc2)cccc1CN1CCNCC1 | 24 | 3.12 (≈ 8.49 µM) | 3.2 (≈ 8.71 µM) | 50 (≈ 136 µM) | 12.5 (≈ 34 µM) | 12.8 (≈ 34.8 µM) | 6.25 (≈ 17 µM) | 3.2 (≈ 8.71 µM) | 34 | 12.5 (≈ 34 µM) | 6.4 (≈ 17.4 µM) | 23 | 33 | 25 (≈ 68 µM) | 12.5 (≈ 34 µM) | 6.4 (≈ 17.4 µM) | 12.5 (≈ 34 µM) | 6.4 (≈ 17.4 µM) | 23 | 27 | – |
